{"source": "patent US20150225762A1", "about": "“SAME-DAY BLOOD CULTURE WITH DIGITAL MICROSCOPY” (ACCELERATE DIAGNOSTICS, INC., priority 2012, published 2015)", "key": {"[1]": {"test_system": "Saur 12600", "assay": "FISH detection of live and killed bacteria with or without protease digestion", "format": "cell-based, S. aureus"}, "[2]": {"test_system": "Paer 27853", "assay": "FISH detection of live and killed bacteria with or without protease digestion", "format": "cell-based, P. aeruginosa"}, "[3]": {"test_system": "Kpne 13882", "assay": "FISH detection of live and killed bacteria with or without protease digestion", "format": "cell-based, K. pneumoniae"}, "[4]": {"test_system": "Ecol 35218", "assay": "Plate count of live bacteria after killing treatment", "format": "cell-based, E. coli"}, "[5]": {"test_system": "Paer 27853", "assay": "Plate count of live bacteria after killing treatment", "format": "cell-based, P. aeruginosa"}, "[6]": {"test_system": "Ecol 35218", "assay": "FISH detection of live and killed bacteria with or without protease digestion", "format": "cell-based, E. coli"}, "[7]": {"test_system": "Kpne 13882", "assay": "Plate count of live bacteria after killing treatment"}, "[8]": {"test_system": "Saur 12600", "assay": "Plate count of live bacteria after killing treatment", "format": "cell-based, S. aureus"}, "[9]": {"conditions": "1 hour, with protease (0.2 mg/mL Pronase)"}, "[10]": {"conditions": "1 hour, with protease (0.2 mg/mL Pronase), cells live or pre-killed as labelled"}, "[11]": {"conditions": "4 hour, with protease (0.2 mg/mL Pronase)"}, "[12]": {"conditions": "4 hour, with protease (0.2 mg/mL Pronase), cells live or pre-killed as labelled"}, "[13]": {"conditions": "0 hr, after gentamycin 100 micrograms per mL 1 hour or 80% ethanol"}, "[14]": {"conditions": "gentamycin 1 hour or 80% ethanol"}}}
{"substance": "gentamycin", "values": [{"measurement": "FISH Conc", "setting": "[1]; 1 hour, no protease", "value": "1.4 × 10^5 cells/mL"}, {"measurement": "Positive Detection?", "setting": "[1]; 1 hour, no protease", "value": "Yes (A detection threshold of 1×10^4 cells per mL was used as the threshold for a positive call in the FISH assay)"}, {"measurement": "Positive Detection?", "setting": "[1]; [9]", "value": "Yes (A detection threshold of 1×10^4 cells per mL was used as the threshold for a positive call in the FISH assay)"}, {"measurement": "FISH Conc", "setting": "[1]; [10]", "value": "1.1 × 10^5 cells/mL"}, {"measurement": "FISH Conc", "setting": "[1]; 4 hour, no protease", "value": "3.0 × 10^4 cells/mL"}, {"measurement": "Positive Detection?", "setting": "[1]; 4 hour, no protease", "value": "Yes (A detection threshold of 1×10^4 cells per mL was used as the threshold for a positive call in the FISH assay)"}, {"measurement": "Positive Detection?", "setting": "[1]; [11]", "value": "Yes (A detection threshold of 1×10^4 cells per mL was used as the threshold for a positive call in the FISH assay)"}, {"measurement": "FISH Conc", "setting": "[1]; [12]", "value": "3.0 × 10^4 cells/mL"}, {"measurement": "FISH Conc", "setting": "[2]; 1 hour, no protease", "value": "3.7 × 10^5 cells/mL"}, {"measurement": "Positive Detection?", "setting": "[2]; 1 hour, no protease", "value": "Yes (A detection threshold of 1×10^4 cells per mL was used as the threshold for a positive call in the FISH assay)"}, {"measurement": "Positive Detection?", "setting": "[2]; [9]", "value": "Yes (A detection threshold of 1×10^4 cells per mL was used as the threshold for a positive call in the FISH assay)"}, {"measurement": "FISH Conc", "setting": "[2]; [10]", "value": "5.3 × 10^4 cells/mL"}, {"measurement": "FISH Conc", "setting": "[2]; 4 hour, no protease", "value": "3.0 × 10^5 cells/mL"}, {"measurement": "Positive Detection?", "setting": "[2]; 4 hour, no protease", "value": "Yes (A detection threshold of 1×10^4 cells per mL was used as the threshold for a positive call in the FISH assay)"}, {"measurement": "Positive Detection?", "setting": "[2]; [11]", "value": "No (A detection threshold of 1×10^4 cells per mL was used as the threshold for a positive call in the FISH assay)"}, {"measurement": "FISH Conc", "setting": "[2]; [12]", "value": "6.7 × 10^3 cells/mL"}, {"measurement": "FISH Conc", "setting": "[3]; 1 hour, no protease", "value": "1.7 × 10^5 cells/mL"}, {"measurement": "Positive Detection?", "setting": "[3]; 1 hour, no protease", "value": "Yes (A detection threshold of 1×10^4 cells per mL was used as the threshold for a positive call in the FISH assay)"}, {"measurement": "Positive Detection?", "setting": "[3]; [9]", "value": "Yes (A detection threshold of 1×10^4 cells per mL was used as the threshold for a positive call in the FISH assay)"}, {"measurement": "FISH Conc", "setting": "[3]; [10]", "value": "7.7 × 10^4 cells/mL"}, {"measurement": "FISH Conc", "setting": "[3]; 4 hour, no protease", "value": "<1 × 10^3 cells/mL"}, {"measurement": "Positive Detection?", "setting": "[3]; 4 hour, no protease", "value": "No (A detection threshold of 1×10^4 cells per mL was used as the threshold for a positive call in the FISH assay)"}, {"measurement": "Positive Detection?", "setting": "[3]; [11]", "value": "Yes (A detection threshold of 1×10^4 cells per mL was used as the threshold for a positive call in the FISH assay)"}, {"measurement": "FISH Conc", "setting": "[3]; [12]", "value": "1.7 × 10^4 cells/mL"}, {"measurement": "Conc of live bacteria by plating", "setting": "[4]; [13]", "value": 10, "unit": "cfu/mL"}, {"measurement": "Killing by plating, in words", "setting": "[4]; [14]", "value": "substantially killed"}, {"measurement": "Conc of live bacteria by plating", "setting": "[5]; [13]", "value": 20, "unit": "cfu/mL"}, {"measurement": "Killing by plating, in words", "setting": "[5]; [14]", "value": "substantially killed"}, {"measurement": "FISH Conc", "setting": "[6]; 1 hour, no protease", "value": "8.8 × 10^6 cells/mL"}, {"measurement": "Positive Detection?", "setting": "[6]; 1 hour, no protease", "value": "Yes (A detection threshold of 1×10^4 cells per mL was used as the threshold for a positive call in the FISH assay)"}, {"measurement": "Positive Detection?", "setting": "[6]; [9]", "value": "Yes (A detection threshold of 1×10^4 cells per mL was used as the threshold for a positive call in the FISH assay)"}, {"measurement": "FISH Conc", "setting": "[6]; [10]", "value": "5.5 × 10^5 cells/mL"}, {"measurement": "FISH Conc", "setting": "[6]; 4 hour, no protease", "value": "4.8 × 10^5 cells/mL"}, {"measurement": "Positive Detection?", "setting": "[6]; 4 hour, no protease", "value": "Yes (A detection threshold of 1×10^4 cells per mL was used as the threshold for a positive call in the FISH assay)"}, {"measurement": "Positive Detection?", "setting": "[6]; [11]", "value": "Yes (A detection threshold of 1×10^4 cells per mL was used as the threshold for a positive call in the FISH assay)"}, {"measurement": "FISH Conc", "setting": "[6]; [12]", "value": "4.5 × 10^5 cells/mL"}, {"measurement": "Conc of live bacteria by plating", "setting": "[7]; [13]", "value": 60, "unit": "cfu/mL"}, {"measurement": "Killing by plating, in words", "setting": "[7]; [14]", "value": "substantially killed"}, {"measurement": "Conc of live bacteria by plating", "setting": "[8]; [13]", "value": "2 × 10^3 cfu/mL"}, {"measurement": "Killing by plating, in words", "setting": "[8]; [14]", "value": "a significant number of S. aureus remained alive"}]}
